Test results as given in ChEMBL document CHEMBL1129860, “Studies on penam sulfones III. Synthesis and -lactamase inhibitory activity of sodium (6R)-6-(-hydroxybenzyl)-2-methoxyiminomethyl-2-methylpenam-3-carboxylate 1,1-dioxide and sodium 2-acyl-2-methylpenam-3-carboxylate 1,1-dioxide” (1997).

How the values were obtained:
Klebsiella aerogenes [1] = experiment: In vitro minimal inhibitory concentration (MIC) of compound in combination with Ceftazidime (CAZ) showed synergic activity against Enterobacter aerogenes S-97; format: functional
Enterobacter cloacae [2] = experiment: In vitro minimal inhibitory concentration (MIC) of compound in combination with Ceftazidime (CAZ) showed synergic activity against Enterobacter cloacae S-65; format: functional
Enterobacter cloacae [3] = experiment: In vitro minimal inhibitory concentration (MIC) of compound in combination with Ceftazidime (CAZ) showed synergic activity against Enterobacter cloacae S-11; format: functional
Morganella morganii [4] = experiment: In vitro minimal inhibitory concentration (MIC) of compound in combination with Ceftazidime (CAZ) showed synergic activity against Morganella morganii 36014; format: functional
Morganella morganii [5] = experiment: In vitro minimal inhibitory concentration (MIC) of compound in combination with Ceftazidime (CAZ) showed synergic activity against Morganella morganii 36030; format: functional
Pseudomonas aeruginosa [6] = experiment: microbe, parasite or virus in culture
Pseudomonas aeruginosa [7] = experiment: microbe, parasite or virus in culture; remark: listed apart in the source
Citrobacter freundii [8] = experiment: In vitro minimal inhibitory concentration (MIC) of compound in combination with Ceftazidime (CAZ) showed synergic activity against Citrobacter freundii 44032; format: functional
Citrobacter freundii [9] = experiment: In vitro minimal inhibitory concentration (MIC) of compound in combination with Ceftazidime (CAZ) showed synergic activity against Citrobacter freundii CT 76; format: functional
Klebsiella aerogenes [10] = experiment: In vitro minimal inhibitory concentration (MIC) of compound in combination with Ceftazidime (CAZ) showed synergic activity against Enterobacter aerogenes 41003; format: functional
Klebsiella aerogenes [11] = experiment: In vitro minimal inhibitory concentration (MIC) of compound in combination with Ceftazidime (CAZ) showed synergic activity against Enterobacter aerogenes 41004; format: functional
Klebsiella aerogenes [12] = experiment: In vitro minimal inhibitory concentration (MIC) of compound in combination with Ceftazidime (CAZ) showed synergic activity against Enterobacter aerogenes 41006; format: functional
Enterobacter cloacae [13] = experiment: In vitro minimal inhibitory concentration (MIC) of compound in combination with Ceftazidime (CAZ) showed synergic activity against Enterobacter cloacae 40011; format: functional
Enterobacter cloacae [14] = experiment: In vitro minimal inhibitory concentration (MIC) of compound in combination with Ceftazidime (CAZ) showed synergic activity against Enterobacter cloacae E40002; format: functional
Enterobacter cloacae [15] = experiment: In vitro minimal inhibitory concentration (MIC) of compound in combination with Ceftazidime (CAZ) showed synergic activity against Enterobacter cloacae P99; format: functional
Escherichia coli [16] = experiment: In vitro minimal inhibitory concentration (MIC) of compound in combination with Ceftazidime (CAZ) showed synergic activity against Escherichia coli TEM 3; format: functional
Escherichia coli [17] = experiment: In vitro minimal inhibitory concentration (MIC) of compound in combination with Ceftazidime (CAZ) showed synergic activity against Escherichia coli TEM 7; format: functional
Klebsiella pneumoniae = experiment: In vitro minimal inhibitory concentration (MIC) of compound in combination with Ceftazidime (CAZ) showed synergic activity against Klebsiella pneumoniae CTX 1; format: functional
Pseudomonas aeruginosa [18] = experiment: In vitro minimal inhibitory concentration (MIC) of compound in combination with Ceftazidime (CAZ) showed synergic activity against Pseudomonas aeruginosa 46220 (DR-2); format: functional
Proteus vulgaris = experiment: In vitro minimal inhibitory concentration (MIC) of compound in combination with Ceftazidime (CAZ) showed synergic activity against Proteus vulgaris CT 106; format: functional
[19] = Morganella morganii, read-out: MIC

Row | Compound | MIC (Klebsiella aerogenes [1]) [µg/mL] | MIC (Enterobacter cloacae [2]) [µg/mL] | MIC (Enterobacter cloacae [3]) [µg/mL] | MIC (Morganella morganii [4]; [19]) [µg/mL] | MIC (Morganella morganii [5]) [µg/mL] | MIC (Pseudomonas aeruginosa [6]) [µg/mL] | MIC (Pseudomonas aeruginosa [7]) [µg/mL] | other results
1 | CC(C)(O/N=C(\C(=O)NC1C(=O)N2C(C(=O)[O-])=C(C[n+]3ccccc3)CSC12)c1csc(N)n1)C(=O)O.CO/N=C/[C@@]1(C)[C@H](C(=O)[O-])N2C(=O)[C@@H]([C@@H](O)c3ccccc3)[C@H]2S1(=O)=O.[Na+] (stereo not drawn) | 4 | < 0.25 | < 0.25 | 2 | 1 | 32 | 16 | 
2 | CC(=O)[C@@]1(C)[C@H](C(=O)[O-])N2C(=O)CC2S1(=O)=O.CC(C)(O/N=C(\C(=O)NC1C(=O)N2C(C(=O)[O-])=C(C[n+]3ccccc3)CSC12)c1csc(N)n1)C(=O)O.[Na+] (stereo not drawn) |  |  |  |  |  |  |  | MIC (Citrobacter freundii [8]): 12.5 µg/mL; MIC (Citrobacter freundii [9]): 12.5 µg/mL; MIC (Klebsiella aerogenes [10]): 1.56 µg/mL; MIC (Klebsiella aerogenes [11]): 1.56 µg/mL; MIC (Klebsiella aerogenes [12]): 12.5 µg/mL; MIC (Enterobacter cloacae [13]): 1.56 µg/mL; MIC (Enterobacter cloacae [14]): 12.5 µg/mL; MIC (Enterobacter cloacae [15]): 6.25 µg/mL; MIC (Escherichia coli [16]): 0.39 µg/mL; MIC (Escherichia coli [17]): 0.39 µg/mL; MIC (Klebsiella pneumoniae): 1.56 µg/mL; MIC (Morganella morganii [4]): ≤ 0.2 µg/mL; MIC (Pseudomonas aeruginosa [18]): 6.25 µg/mL; MIC (Proteus vulgaris): 1.56 µg/mL
3 | CC(C)(O/N=C(\C(=O)NC1C(=O)N2C(C(=O)[O-])=C(C[n+]3ccccc3)CSC12)c1csc(N)n1)C(=O)O.CO/N=C/[C@@]1(C)[C@H](C(=O)[O-])N2C(=O)CC2S1(=O)=O.[Na+] (stereo not drawn) | 0.5 | < 0.25 | < 0.25 | < 0.25 | < 0.25 | 32 | 16 | 
